Reference: patent US9932308B2, “Method for producing indoline compound” (UBE INDUSTRIES, LTD., priority 2014, dated 2018)
“Also recorded” adds a separate entry of the source.

Assays:
Format in all cases: physicochemical
[1] = Thermal stability test of crystal of compound (1) (change in content of compound (E-3) on heating); conditions: for Content (Y) of compound (E-3) measured after test: after heating of the crystal at 70° C. for 192 hours; for Content (Y) of compound (E-3) measured after test / Content (X) of compound (E-3) measured before test: HPLC peak area ratio, 225 nm; for Content (X) of compound (E-3) measured before test: before heating; for Thermal stability of the crystal (conclusion in words) / [Y−X] (difference between Y and X, increase in content of compound (E-3)): heating at 70° C. for 192 hours
Method: In the present specification, a “γ-crystal with good stability” is identified by the thermal stability test described later and is one for which [Y−X] (i.e. a difference between Y and X) is less than 0.040% when the content of the compound (E-3) with respect to the total amount of the crystal is expressed as X % and the content of the compound (E-3) as measured after heating of the crystal at 70° C. for 192 hours is expressed as Y %. The crystal structure of the indoline compound is determined using a powder X-ray diffractometer.
The thermal stability test is a test for evaluating a change in the content of the compound (E-3) in the γ-crystal of the compound (1) caused when the crystal is heated at 70° C. for 192 hours. The pre-test content X (%) of the compound (E-3) with respect to the total amount of the crystal and the post-heating content Y (%) of the compound (E-3) with respect to the total amount of the crystal are measured, and the amount of change is calculated by the formula Y−X and expressed as [Y−X]. The content of the compound (E-3) may be on a mass basis or a volume basis. To measure the content of the compound (E-3) with increased accuracy, the measurement may be performed using high-performance liquid chromatography (HPLC). When the content of the compound (E-3) is measured using HPLC, the content can be measured as a value obtained as follows: a peak area of a peak observed in a chromatogram and attributed to the compound (E-3) is divided by the sum of the peak areas of all the peaks.
Compound analysis was performed in the same manner as in the above examples of step A, except that the measurement wavelength and the mobile phase were changed as follows.
Measurement wavelength: 225 nm
Mobile phase and measurement method: 1.0 g of ammonium formate and water were mixed to a volume of 1000 mL, and then 0.53 mL of formic acid was added to adjust the pH of the solution to 3.7. The measurement was performed as the volume ratio between the solution and acetonitrile was varied from 4:1 to 1:1.
(§1) The content of the compound (E-3) was expressed as a value calculated as follows: a peak area of a peak observed in a chromatogram and attributed to the compound (E-3) was divided by the sum of peak areas of all peaks observed in the chromatogram.

[2] = Photostability test of crystals of compound (1); conditions: 4000-lux light at 25° C., relative humidity 60%, 336 hours
Method: as §1
(§2) An α-crystal, a β-crystal, and a γ-crystal were produced, and each of them was subjected to a photostability test and a crushing stability test under the following conditions.
Each crystal was left under irradiation of 4000-lux light at 25° C. and a relative humidity of 60% for 336 hours.

[3] = Crushing stability test of crystals of compound (1) (crystal form after crushing); conditions: crushed in a mortar with a pestle
Method: The γ-crystal of the compound (1) in the present specification may contain a solvent or the like in addition to the compound (1), as described in Patent Literature 3. In particular, “α-crystal”, “β-crystal”, and “γ-crystal” are each identified by a method described in Patent Literature 3 and, specifically, the identification is performed through measurement of powder X-ray diffraction.
Analysis equipment: Powder X-ray diffractometer, RINT-TTR III (manufactured by Rigaku Corporation)
as §2
Each crystal was put in a mortal and crushed with a pestle.

SMILES | Content (Y) of compound (E-3) measured after test [1] [%] | Content (X) of compound (E-3) measured before test [1] [%] | Thermal stability of the crystal (conclusion in words) [1] | [Y−X] (difference between Y and X, increase in content of compound (E-3)) [1] [%] | Stability to light (conclusion in words) [2] | Result of crushing stability test (phase transition) [3]
C[C@H](Cc1cc2c(c(C(N)=O)c1)N(CCCO)CC2)NCCOc1ccccc1OCC(F)(F)F [Comparative Example C1, (−)-1-(3-hydroxypropyl)-5-[(2R)-2-({2-[2-(2,2,2-trifluoroethoxy)phenoxy]ethyl}amino)propyl]-2,3-dihydro-1H-indole-7-carboxamide, reference compound] | 0.133 | 0.091 | unstable | 0.042 | – | –
C[C@H](Cc1cc2c(c(C(N)=O)c1)N(CCCO)CC2)NCCOc1ccccc1OCC(F)(F)F [α-crystal, (−)-1-(3-hydroxypropyl)-5-[(2R)-2-({2-[2-(2,2,2-trifluoroethoxy)phenoxy]ethyl}amino)propyl]-2,3-dihydro-1H-indole-7-carboxamide] | – | – | – | – | the most unstable | transformed into a γ-crystal; also recorded: the most unstable
C[C@H](Cc1cc2c(c(C(N)=O)c1)N(CCCO)CC2)NCCOc1ccccc1OCC(F)(F)F [β-crystal, (−)-1-(3-hydroxypropyl)-5-[(2R)-2-({2-[2-(2,2,2-trifluoroethoxy)phenoxy]ethyl}amino)propyl]-2,3-dihydro-1H-indole-7-carboxamide] | – | – | – | – | – | phase transition was not observed
C[C@H](Cc1cc2c(c(C(N)=O)c1)N(CCCO)CC2)NCCOc1ccccc1OCC(F)(F)F [γ-crystal, (−)-1-(3-hydroxypropyl)-5-[(2R)-2-({2-[2-(2,2,2-trifluoroethoxy)phenoxy]ethyl}amino)propyl]-2,3-dihydro-1H-indole-7-carboxamide] | – | – | – | – | good stability to light | phase transition was not observed; also recorded: does not undergo phase transition even when subjected to crushing

Continued, in another order:

Content (Y) of compound (E-3) measured after test [1] [%] | Content (X) of compound (E-3) measured before test [1] [%] | Thermal stability of the crystal (conclusion in words) [1] | [Y−X] (difference between Y and X, increase in content of compound (E-3)) [1] [%] | Stability to light (conclusion in words) [2] | SMILES | Result of crushing stability test (phase transition) [3]
0.044 | 0.043 | stable | 0.001 | – | C[C@H](Cc1cc2c(c(C(N)=O)c1)N(CCCO)CC2)NCCOc1ccccc1OCC(F)(F)F [Example C1, (−)-1-(3-hydroxypropyl)-5-[(2R)-2-({2-[2-(2,2,2-trifluoroethoxy)phenoxy]ethyl}amino)propyl]-2,3-dihydro-1H-indole-7-carboxamide] | –
0.088 | 0.076 | stable | 0.012 | – | C[C@H](Cc1cc2c(c(C(N)=O)c1)N(CCCO)CC2)NCCOc1ccccc1OCC(F)(F)F [Example C2, (−)-1-(3-hydroxypropyl)-5-[(2R)-2-({2-[2-(2,2,2-trifluoroethoxy)phenoxy]ethyl}amino)propyl]-2,3-dihydro-1H-indole-7-carboxamide] | –
0.097 | 0.071 | stable | 0.026 | – | C[C@H](Cc1cc2c(c(C(N)=O)c1)N(CCCO)CC2)NCCOc1ccccc1OCC(F)(F)F [Example C3, (−)-1-(3-hydroxypropyl)-5-[(2R)-2-({2-[2-(2,2,2-trifluoroethoxy)phenoxy]ethyl}amino)propyl]-2,3-dihydro-1H-indole-7-carboxamide] | –
0.091 | 0.067 | stable | 0.024 | – | C[C@H](Cc1cc2c(c(C(N)=O)c1)N(CCCO)CC2)NCCOc1ccccc1OCC(F)(F)F [Example C4, (−)-1-(3-hydroxypropyl)-5-[(2R)-2-({2-[2-(2,2,2-trifluoroethoxy)phenoxy]ethyl}amino)propyl]-2,3-dihydro-1H-indole-7-carboxamide] | –
